Source: patent US20120207729A1, “SUBSTITUTED BENZOAZOLE PDE4 INHIBITORS FOR TREATING PULMONARY AND CARDIOVASCULAR DISORDERS” (DECODE GENETICS EHF, priority 2007, published 2012)

What was measured:
human PDE4D = human PDE4D (Homo sapiens, UniProt Q08499); experiment: In-vitro real-time enzyme-coupled spectrophotometric assay for PDE4 enzymes; assay type: biochemical; details: NADH-coupled assay, absorbance at 340 nm, read-out: IC50 for human PDE4D isozyme
Procedure: (§1) In-vitro assay for PDE4 enzymes. The in-vitro activity of PDE4 enzymes and the in-vitro potency of therapeutic agents described in the present invention was measured using a real-time, enzyme-coupled spectrophotometric assay. By using three different coupling enzymes, the product of the PDE4 reaction is coupled to the oxidation of the reduced form β-nicotinamide adenine dinucleotide (NADH), which dissipation can be monitored spectrophotmetrically at […].
(§2) Assay description. Buffer A containing 50 mM Tris, pH 8.0, 16 mM MgCl2 and 80 mM KCl is prepared and stored at room temperature. Buffer B containing 50 mM Tris, pH 8.0 is prepared and stored at room temperature. Stock solutions of the following reagents are prepared in Buffer B and stored at −20° C.: Adenosine-5′-triphosphate (ATP), cyclic adenosine-5′-monophosphate (cAMP), phosphoenolpyruvate (PEP) and NADH. An assay mix is prepared by mixing Buffer A, […] (TCEP), ATP, PEP, NADH, myokinase (MK), pyruvate kinase (PK), lactate dehydroganese (LDH) and PDE4 to a final volume of 20 mL, which is enough for a single 96-well assay plate. Assay mix (180 μL) and test article (10 μL) in 1:1 DMSO/H2O mixture is pre-incubated at room temperature for 10 min. The enzymatic reaction is initiated by addition of cAMP (10 μL). Final concentration of all components in the assay (200 μL/well) are as follows: 10 mM MgCl2, 50 mM KCl, 5 mM TCEP, 2.5% DMSO, 0.4 mM NADH, 1 mM PEP, 0.04 mM ATP, 5 units MK, 1 unit PK, 1 unit LDH and appropriate amount of PDE4. Reaction progress curves are monitored in a plate reader capable of measuring light absorbance at 340 nm. A decrease in light absorbance at 340 nm is due to oxidation of NADH. Positive controls containing no test article and negative controls containing no test article and no cAMP are included on every assay plate. Reaction rates are determined from the slopes of the linear portions of the progress curves. All data is percent normalized with respect to controls and presented as percent inhibition. Compounds BB-01, BB-02, BB-03, BB-04, BB-05, BB-08, BB-09 gave IC50<5 uM for human PDE4D and PDE4B isozymes.

human PDE4B = human PDE4B (Homo sapiens, UniProt Q07343); experiment: as above; assay type: biochemical; details: NADH-coupled assay, absorbance at 340 nm, read-out: IC50 for human PDE4B isozyme
Procedure: as §1, §2

Chain of human PDE4D (Q08499 whole entry): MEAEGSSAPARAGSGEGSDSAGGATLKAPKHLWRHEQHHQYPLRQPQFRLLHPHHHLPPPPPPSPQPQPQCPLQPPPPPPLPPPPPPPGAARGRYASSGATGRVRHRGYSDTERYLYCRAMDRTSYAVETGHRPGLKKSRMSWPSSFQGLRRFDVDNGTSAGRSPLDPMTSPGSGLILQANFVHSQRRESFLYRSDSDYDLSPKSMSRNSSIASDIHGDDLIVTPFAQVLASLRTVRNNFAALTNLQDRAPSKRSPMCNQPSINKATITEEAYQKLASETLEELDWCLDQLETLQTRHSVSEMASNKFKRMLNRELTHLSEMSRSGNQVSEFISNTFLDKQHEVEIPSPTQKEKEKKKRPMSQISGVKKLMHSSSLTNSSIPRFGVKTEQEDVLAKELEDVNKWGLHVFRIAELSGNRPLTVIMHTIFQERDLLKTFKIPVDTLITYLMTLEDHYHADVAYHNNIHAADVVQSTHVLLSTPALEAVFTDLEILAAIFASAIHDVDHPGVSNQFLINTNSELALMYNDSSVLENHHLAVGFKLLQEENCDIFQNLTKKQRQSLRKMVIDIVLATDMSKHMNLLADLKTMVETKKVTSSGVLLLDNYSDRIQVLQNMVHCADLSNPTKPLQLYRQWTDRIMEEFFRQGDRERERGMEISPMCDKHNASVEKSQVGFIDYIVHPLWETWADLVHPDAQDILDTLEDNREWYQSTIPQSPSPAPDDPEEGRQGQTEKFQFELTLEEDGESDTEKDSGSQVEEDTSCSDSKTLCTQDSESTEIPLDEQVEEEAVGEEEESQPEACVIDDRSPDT
Chain of human PDE4B (Q07343 whole entry): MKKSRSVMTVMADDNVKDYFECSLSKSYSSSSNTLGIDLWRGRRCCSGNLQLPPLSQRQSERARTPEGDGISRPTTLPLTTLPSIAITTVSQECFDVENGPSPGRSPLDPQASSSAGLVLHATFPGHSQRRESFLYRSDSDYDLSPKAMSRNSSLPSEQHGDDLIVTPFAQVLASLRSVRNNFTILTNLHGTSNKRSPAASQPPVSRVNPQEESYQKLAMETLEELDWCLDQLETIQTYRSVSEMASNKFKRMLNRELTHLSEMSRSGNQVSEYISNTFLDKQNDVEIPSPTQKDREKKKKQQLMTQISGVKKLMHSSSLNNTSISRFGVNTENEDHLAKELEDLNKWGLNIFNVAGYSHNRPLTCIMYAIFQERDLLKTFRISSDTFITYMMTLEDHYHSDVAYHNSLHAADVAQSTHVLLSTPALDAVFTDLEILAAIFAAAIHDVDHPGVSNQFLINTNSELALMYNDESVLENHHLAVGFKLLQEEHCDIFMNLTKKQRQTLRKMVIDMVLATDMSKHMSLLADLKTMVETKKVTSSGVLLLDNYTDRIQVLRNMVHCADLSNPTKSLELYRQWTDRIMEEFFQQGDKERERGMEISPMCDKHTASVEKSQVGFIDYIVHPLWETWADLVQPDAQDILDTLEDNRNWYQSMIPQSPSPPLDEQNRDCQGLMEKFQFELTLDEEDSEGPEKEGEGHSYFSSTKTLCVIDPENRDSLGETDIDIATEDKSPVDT

SMILES | IC50 (human PDE4D) [µM] | IC50 (human PDE4B) [µM]
Cc1nc2c(-c3cccc(Cl)c3)cc(Cc3ccc(N4CC[C@@H]4C(=O)O)nc3)cc2s1 [BB-09, (R)-1-{5-[4-(3-chloro-phenyl)-2-methyl-benzothiazol-6-ylmethyl]-pyridin-2-yl}-azetidine-2-carboxylic acid] | < 5 | < 5
O=C(O)[C@@H]1CCCN1c1ccc(Cc2cc3scnc3c(-c3cccc(Cl)c3)c2F)cn1 [BB-03, (S)-1-{5-[4-(3-chloro-phenyl)-5-fluoro-benzothiazol-6-ylmethyl]-pyridin-2-yl}-pyrrolidine-2-carboxylic acid] | < 5 | < 5
Cc1nc2c(-c3cccc(Cl)c3)cc(Cc3ccc(N4CC[C@H]4C(=O)O)nc3)cc2s1 [BB-08, (S)-1-{5-[4-(3-chloro-phenyl)-2-methyl-benzothiazol-6-ylmethyl]-pyridin-2-yl}-azetidine-2-carboxylic acid] | < 5 | < 5
O=C(O)[C@@H]1CCN1c1ccc(Cc2cc3scnc3c(-c3cccc(Cl)c3)c2F)cn1 [BB-04, (S)-1-{5-[4-(3-chloro-phenyl)-5-fluoro-benzothiazol-6-ylmethyl]-pyridin-2-yl}-azetidine-2-carboxylic acid] | < 5 | < 5
O=C(O)C1CCN1c1ccc(Cc2cc3scnc3c(-c3cccc(Cl)c3)c2F)cn1 (racemic) [BB-01, 1-{5-[4-(3-chloro-phenyl)-5-fluorobenzothiazol-6-ylmethyl]-pyridin-2-yl}-azetidine-2-carboxylic acid] | < 5 | < 5
O=C(O)[C@H]1CCN1c1ccc(Cc2cc3scnc3c(-c3cccc(Cl)c3)c2F)cn1 [BB-05, (R)-1-{5-[4-(3-chloro-phenyl)-5-fluoro-benzothiazol-6-ylmethyl]-pyridin-2-yl}-azetidine-2-carboxylic acid] | < 5 | < 5
